Experimental findings from patent publication US20140155376A1, “PYRROLOPYRAZINE KINASE INHIBITORS” (Hoffmann-La Roche Inc., priority 2010, published 2014) are described below.

Each structure is given as a SMILES string.

T1 sequence (P52333 810-1124): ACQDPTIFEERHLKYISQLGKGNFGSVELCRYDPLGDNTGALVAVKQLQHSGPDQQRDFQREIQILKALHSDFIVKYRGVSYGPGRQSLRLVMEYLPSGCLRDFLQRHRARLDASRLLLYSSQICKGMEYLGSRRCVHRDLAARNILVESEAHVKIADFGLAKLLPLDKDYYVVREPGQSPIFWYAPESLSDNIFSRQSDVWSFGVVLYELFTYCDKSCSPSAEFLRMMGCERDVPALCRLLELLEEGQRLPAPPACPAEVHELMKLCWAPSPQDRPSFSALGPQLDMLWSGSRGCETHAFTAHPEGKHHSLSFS

This experiment addresses T1, JAK3 (recombinant human kinase domain; h-jak3(810-1124)) (Homo sapiens, UniProt P52333).
T1 construct: h-jak3(810- 1124)-sf9-c; made in house; host or cells: Sf9 insect cells
As to the kind of experiment: Determination of IC50 of Janus Kinase (JAK) inhibition: JAK3, radioactive end-point assay with 33P-ATP. The format is biochemical. Conditions: JAK3 kinase domain; ATP 1.5 uM, peptide 50 uM, 20 minutes, room temperature, 10% DMSO; read-out: Ic50 h-jak3(810-1124)-sf9-c:no additive.
With `C[C@H](NC(=O)c1c[nH]c2ncc(-c3ccc(C(=O)N4CCS(=O)(=O)CC4)s3)nc12)C(C)(C)C` [Example I-213, 2-[5-(1,1-Dioxo-1λ^6-thiomorpholine-4-carbonyl)-thiophen-2-yl]-5H-pyrrolo[2,3-b]pyrazine-7-carboxylic acid ((S)-1,2,2-trimethyl-propyl)-amide], the IC50 worked out at 0.11 nM.

Consider `C[C@@H](NC(=O)c1c[nH]c2ncc(C3CC3)nc12)C1(C#N)CCCCC1` [Example I-117, 2-Cyclopropyl-5H-pyrrolo[2,3-b]pyrazine-7-carboxylic acid [(R)-1-(1-cyano-cyclohexyl)-ethyl]-amide], for which the IC50 came to 26.8 nM.

Take `CC1CCCCC1NC(=O)c1ccc(-c2cnc3[nH]cc(C(=O)N[C@@H](C)C(C)(C)C)c3n2)s1` (stereo partly drawn) [Example I-190, 2-[5-(2-Methyl-cyclohexyl-carbamoyl)-thiophen-2-yl]-5H-pyrrolo[2,3-b]pyrazine-7-carboxylic acid ((S)-1,2,2-trimethyl-propyl)-amide]: the IC50 worked out at 0.69 nM.

`C[C@H](NC(=O)c1c[nH]c2ncc(-c3ccc(C(N)=O)s3)nc12)C(C)(C)C` [Example I-215, 2-(5-Carbamoyl-thiophen-2-yl)-5H-pyrrolo[2,3-b]pyrazine-7-carboxylic acid ((S)-1,2,2-trimethyl-propyl)-amide]: the IC50 came to 0.21 nM.

`CC(C)(C)[C@@H](CC#N)NC(=O)c1c[nH]c2ncc(C3CC3)nc12` [Example I-76, 2-Cyclopropyl-5H-pyrrolo[2,3-b]pyrazine-7-carboxylic acid ((R)-1-cyanomethyl-2,2-dimethyl-propyl)-amide]: the IC50 amounted to 132 nM.

On to `CCNC(=O)c1c[nH]c2ncc(Oc3cccc(CC)c3)nc12` [Example I-249, 2-(3-Ethyl-phenoxy)-5H-pyrrolo[2,3-b]pyrazine-7-carboxylic acid ethylamide], for which the IC50 came out at 1590 nM.

For `CC(C)NC(=O)c1ccc(-c2cnc3[nH]cc(C(=O)N[C@@H](C)C(C)(C)C)c3n2)s1` [Example I-156, 2-(5-Isopropyl-carbamoyl-thiophen-2-yl)-5H-pyrrolo[2,3-b]pyrazine-7-carboxylic acid ((S)-1,2,2-trimethyl-propyl)-amide], the IC50 stood at 0.35 nM.

For the molecule `CC(NC(=O)c1c[nH]c2ncc(C3CC3)nc12)C1CCOCC1` (centres unmarked) [Example I-85, 2-Cyclopropyl-5H-pyrrolo[2,3-b]pyrazine-7-carboxylic acid [1-(tetrahydro-pyran-4-yl)-ethyl]-amide], the IC50 was found to be 72.5 nM.

`CCNC(=O)c1c[nH]c2ncc(Oc3ccc4c(c3)[C@H](NS(C)(=O)=O)CC4)nc12` [Example I-270, 2-((R)-3-Methanesulfonylamino-indan-5-yloxy)-5H-pyrrolo[2,3-b]pyrazine-7-carboxylic acid ethylamide]: the IC50 is 740 nM.

For `C[C@H](NC(=O)c1c[nH]c2ncc(C3CC3)nc12)[C@](C)(O)C(F)(F)F` [Example I-63, 2-Cyclopropyl-5H-pyrrolo[2,3-b]pyrazine-7-carboxylic acid ((1S,2S)-3,3,3-trifluoro-2-hydroxy-1,2-dimethyl-propyl)-amide], the IC50 is 30.5 nM.

On to `O=C(NC(C1CCCCC1)C1CC1)c1c[nH]c2ncc(C3CC3)nc12` (centres unmarked) [Example I-78, 2-Cyclopropyl-5H-pyrrolo[2,3-b]pyrazine-7-carboxylic acid (cyclohexyl-cyclopropyl-methyl)-amide], for which the IC50 worked out at 78.6 nM.

Turning to `CC(=O)N[C@@H]1CCc2cc(Oc3cnc4[nH]cc(C(=O)N[C@@H](C)C(C)(C)C)c4n3)ccc21` [Example I-291, 2-((R)-1-Acetylamino-indan-5-yloxy)-5H-pyrrolo[2,3-b]pyrazine-7-carboxylic acid ((S)-1,2,2-trimethyl-propyl)-amide], the IC50 stood at 37 nM.

For the molecule `C[C@H](NC(=O)c1c[nH]c2ncc(-c3ccc(C(=O)N4CCN(C)CC4)s3)nc12)C(C)(C)C` [Example I-161, 2-[5-(4-Methyl-piperazine-1-carbonyl)-thiophen-2-yl]-5H-pyrrolo[2,3-b]pyrazine-7-carboxylic acid ((S)-1,2,2-trimethyl-propyl)-amide], the IC50 came out at 0.32 nM.

Turning to `CC(C)(CO)NC(=O)c1c[nH]c2ncc(C3CC3)nc12` [Example I-45, 2-Cyclopropyl-5H-pyrrolo[2,3-b]pyrazine-7-carboxylic acid (2-hydroxy-1,1-dimethyl-ethyl)-amide], the IC50 is 208 nM.

For the molecule `C[C@H](NC(=O)c1c[nH]c2ncc(-c3ccc(C(=O)NCc4ccc(F)cc4)s3)nc12)C(C)(C)C` [Example I-185, 2-[5-(4-Fluoro-benzylcarbamoyl)-thiophen-2-yl]-5H-pyrrolo[2,3-b]pyrazine-7-carboxylic acid ((S)-1,2,2-trimethyl-propyl)-amide], the IC50 was 0.32 nM.

For the molecule `CC(=O)NC1CCN(C(=O)c2ccc(-c3cnc4[nH]cc(C(=O)N[C@@H](C)C(C)(C)C)c4n3)s2)CC1` [Example I-183, 2-[5-[4-Acetylamino-piperidine-1-carbonyl)-thiophen-2-yl]-5H-pyrrolo[2,3-b]pyrazine-7-carboxylic acid ((S)-1,2,2-trimethyl-propyl)-amide], the half-maximal inhibitory concentration (IC50) worked out at 0.32 nM.

In the case of `CC[C@@](C)(O)[C@H](C)NC(=O)c1c[nH]c2ncc(C3CC3)nc12` [Example I-34, 2-Cyclopropyl-5H-pyrrolo[2,3-b]pyrazine-7-carboxylic acid ((1S,2R)-2-hydroxy-1,2-dimethyl-butyl)-amide], the IC50 came to 36.4 nM.

In the case of `C[C@H](NC(=O)c1c[nH]c2ncc(-c3cnn(C)c3)nc12)C(C)(C)C#N` [Example I-139, 2-(1-Methyl-1H-pyrazol-4-yl)-5H-pyrrolo[2,3-b]pyrazine-7-carboxylic acid ((S)-2-cyano-1,2,2-trimethyl-ethyl)-amide], the IC50 was found to be 0.55 nM.

On to `Cc1cc(-c2cnc3[nH]cc(C(=O)N[C@@H](C)C(C)(C)C)c3n2)sc1C(=O)N1CC2(COC2)C1` [Example I-221, 2-[4-Methyl-5-(2-oxa-6-aza-spiro[3.3]heptane-6-carbonyl)-thiophen-2-yl]-5H-pyrrolo[2,3-b]pyrazine-7-carboxylic acid ((S)-1,2,2-trimethyl-propyl)-amide], for which the IC50 is 0.08 nM.

`C[C@H](NC(=O)c1c[nH]c2ncc(-c3ccc(C(=O)NC4CCOCC4)s3)nc12)C(C)(C)C` [Example I-225, 2-[5-(Tetrahydro-pyran-4-ylcarbamoyl)-thiophen-2-yl]-5H-pyrrolo[2,3-b]pyrazine-7-carboxylic acid ((S)-1,2,2-trimethyl-propyl)-amide]: the IC50 turned out to be 0.19 nM.

For the molecule `C[C@H](NC(=O)c1c[nH]c2ncc(-c3ccc(C(=O)N4CCC4)s3)nc12)C(C)(C)C` [Example I-180, 2-[5-(Azetidine-1-carbonyl)-thiophen-2-yl]-5H-pyrrolo[2,3-b]pyrazine-7-carboxylic acid ((S)-1,2,2-trimethyl-propyl)-amide], the IC50 is 0.32 nM.

In the case of `C[C@H](NC(=O)c1c[nH]c2ncc(-c3ccc(C(F)(F)F)cc3)nc12)C(C)(C)C` [Example I-143, 2-(4-Trifluoromethyl-phenyl)-5H-pyrrolo[2,3-b]pyrazine-7-carboxylic acid ((S)-1,2,2-trimethyl-propyl)-amide], the IC50 stood at 6.28 nM.

For the molecule `CC(C)[C@H](C)NC(=O)c1c[nH]c2ncc(C3CC3)nc12` [Example I-25, 2-Cyclopropyl-5H-pyrrolo[2,3-b]pyrazine-7-carboxylic acid ((S)-1,2-dimethyl-propyl)-amide], the IC50 came to 6.73 nM.

For the molecule `CC(C)NC(=O)c1c[nH]c2ncc(Oc3ccc4c(c3)[C@H](NS(C)(=O)=O)CC4)nc12` [Example I-268, 2-((R)-3-Methanesulfonylamino-indan-5-yloxy)-5H-pyrrolo[2,3-b]pyrazine-7-carboxylic acid isopropylamide], the IC50 worked out at 155 nM.

`CC[C@H](C)NC(=O)c1c[nH]c2ncc(C3CC3)nc12` [Example I-22, 2-Cyclopropyl-5H-pyrrolo[2,3-b]pyrazine-7-carboxylic acid ((S)-sec-butyl)-amide]: the IC50 stood at 5.9 nM.

In the case of `CS(=O)(=O)N1CCCC(CNC(=O)c2c[nH]c3ncc(C4CC4)nc23)C1` (centres unmarked) [Example I-108, 2-Cyclopropyl-5H-pyrrolo[2,3-b]pyrazine-7-carboxylic acid (1-methanesulfonyl-piperidin-3-ylmethyl)-amide], the IC50 was 163 nM.

Consider `C[C@H](NC(=O)c1c[nH]c2ncc(C3=CCCCC3)nc12)C(C)(C)O` [Example I-7, 2-Cyclohex-1-enyl-5H-pyrrolo[2,3-b]pyrazine-7-carboxylic acid ((S)-2-hydroxy-1,2-dimethyl-propyl)-amide], for which the half-maximal inhibitory concentration (IC50) came to 4.51 nM.

Consider `C[C@@H](NC(=O)c1c[nH]c2ncc(Oc3ccc(F)cc3F)nc12)C1CCCCC1` [Example I-124, 2-(2,4-Difluoro-phenoxy)-5H-pyrrolo[2,3-b]pyrazine-7-carboxylic acid ((R)-1-cyclohexyl-ethyl)-amide], for which the IC50 worked out at 442 nM.

As to `CCNC(=O)c1c[nH]c2ncc(Oc3cccc(C)c3)nc12` [Example I-248, 2-m-Tolyloxy-5H-pyrrolo[2,3-b]pyrazine-7-carboxylic acid ethylamide], the IC50 came to 1030 nM.

Consider `CC(C)[C@H](CO)NC(=O)c1c[nH]c2ncc(C3CC3)nc12` [Example I-56, 2-Cyclopropyl-5H-pyrrolo[2,3-b]pyrazine-7-carboxylic acid ((R)-1-hydroxymethyl-2-methyl-propyl)-amide], for which the IC50 came out at 9.84 nM.

On to `Cc1ccc(CNC(=O)c2ccc(-c3cnc4[nH]cc(C(=O)N[C@@H](C)C(C)(C)C)c4n3)s2)o1` [Example I-193, 2-{5-[(5-Methyl-furan-2-ylmethyl)-carbamoyl]-thiophen-2-yl}-5H-pyrrolo[2,3-b]pyrazine-7-carboxylic acid ((S)-1,2,2-trimethyl-propyl)-amide], for which the IC50 worked out at 0.42 nM.

As to `C[C@H](CS(C)(=O)=O)NC(=O)c1ccc(-c2cnc3[nH]cc(C(=O)N[C@@H](C)C(C)(C)C)c3n2)s1` [Example I-211, 2-[5-((R)-2-Methanesulfonyl-1-methyl-ethylcarbamoyl)-thiophen-2-yl]-5H-pyrrolo[2,3-b]pyrazine-7-carboxylic acid ((S)-1,2,2-trimethyl-propyl)-amide], the IC50 is 0.22 nM.

One may read the IC50 as the concentration that gives 50% inhibition.
